Earlier results on three compounds are cited in patent publication US20050002962A1, “Immunostimulatory agents in botanicals” (priority 2003, published 2005).

One data set deals with mice. The note with it: mouse, in vivo.
Another data set deals with macrophages. The note with it: 250 μg/ml.

For the compound echinacoside, in the data set on mice, the carbon clearance result was “inactive”.

Regarding arabinogalactan, in the data set on macrophages, the “macrophage IL-1 production, of maximal E. coli LPS (10 μg/ml)” value is given as 20% and the “macrophage interferon-β production versus maximal E. coli LPS (10 μg/ml)” value was “equal to”.

Consider `O=C(/C=C/c1ccc(O)c(O)c1)O[C@@H](C(=O)O)[C@@H](OC(=O)/C=C/c1ccc(O)c(O)c1)C(=O)O` [cichoric acid, Cichoric acid], for which the carbon clearance result in the data set with mice is listed as “enhanced carbon clearance”.
